Test results: PMC5681660, “Reduced hepatitis B and D viral entry using clinically applied drugs as novel inhibitors of the bile acid transporter NTCP” (Scientific Reports, 2017)
Structures can show the parent of a compound that is named as a salt. Where two headings read alike, the source gives them in different places.

What was measured:
in vitro = conditions: human, U2OS-HA-hNTCP cells
[1] = WST-1 cytotoxicity, wildtype U2OS cells; conditions: human, wildtype U2OS cells
U2OS-HA-hNTCP cells = conditions: 2 hours
human NTCP [2] = biological target: T1, human NTCP (Homo sapiens, UniProt Q14973); assay: Myrcludex B-FITC binding by confocal microscopy in U2OS-HA-hNTCP cells; design: HA; expressed in transfected cells; conditions: for Myrcludex B-FITC fluorescence / binding to U2OS-HA-hNTCP cells (in words): co-administration with increasing amounts of drug; for ≥50% loss of Myrcludex B binding to hNTCP (concentration): confocal microscopy, 0.2 µM Myrcludex B-FITC, drug 1, 10, 100 µM, concentration at which binding inhibited minimally 50%
T1 sequence (Q14973 1-349): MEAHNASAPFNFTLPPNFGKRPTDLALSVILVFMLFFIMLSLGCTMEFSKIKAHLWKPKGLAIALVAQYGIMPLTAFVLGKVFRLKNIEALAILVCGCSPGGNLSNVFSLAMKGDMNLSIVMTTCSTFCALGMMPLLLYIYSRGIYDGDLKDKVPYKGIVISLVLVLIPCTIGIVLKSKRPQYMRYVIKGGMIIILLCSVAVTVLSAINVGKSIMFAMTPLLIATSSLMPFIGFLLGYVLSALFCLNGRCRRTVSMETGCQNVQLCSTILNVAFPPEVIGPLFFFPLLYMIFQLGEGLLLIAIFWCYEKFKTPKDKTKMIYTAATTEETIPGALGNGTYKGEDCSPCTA
Procedure: After 24 hours, medium was aspirated and cells were washed once with 300 µl Leibovitz’s L-15 Medium (Invitrogen). A 30 minute incubation period followed in which all cells were incubated with 0.2 µM Myrcludex B-FITC with or without drug (1, 10, 100 µM) and Hoechst (1/1000) in 300 µL Leibovitz’s L-15 Medium. Cells were washed twice with Leibovitz’s L-15 Medium and subsequently 400 µL Leibovitz’s L-15 Medium was added. Live cell fluorescent imaging was performed using a Leica SP8X-SMD confocal microscope with fully enclosed incubation at 37 °C. A 63x oil objective was used and images were captured while the cells were consecutively excited at 490 nm (FITC) 350 nm (Hoechst). ImageJ software (National Insititutes of Health, Bethesda, MD) was employed for data analysis.

human NTCP [3] = biological target: T1, human NTCP; assay: Taurocholate uptake inhibition studies in U2OS-HA-hNTCP cells; type: cell-based; design: HA; expressed in transfected cells; conditions: for IC50: U2OS-HA-hNTCP cells, concentrations 1 nM to 10 mM, read-out: IC50 for hNTCP-mediated TC uptake; for Taurocholate uptake into U2OS-HA-hNTCP cells (in words): increasing drug concentrations
Procedure: For MDCK or MDCK-hASBT cells 70.000 cells/well were plated in 24-well plates, followed by 24 hours 10 mM sodium butyrate (Sigma-Aldrich) stimulation the next day. Cells were used in the inhibition studies 24 hours (U2OS cell lines) or 48 hours (MDCK cell lines) later. Inhibition studies with mNTCP transiently transfected cells were conducted 48–72 hours after transfection.
Medium was aspirated from the wells and cells were washed once with 250 µL uptake buffer. Subsequently, cells were pre-incubated with drug in 150 µL uptake buffer for 10 minutes at 37 °C. Taurocholate uptake was initiated by addition of 100 µL uptake buffer containing taurocholate (final concentration 10 µM TC spiked with tritium-labeled TC) and cells were incubated for 2 minutes at 37 °C. Subsequently, cells were washed 4 times with ice-cold PBS and lysed with 0.05% SDS in water. Radioactivity was measured by liquid scintillation counting.

U2OS cells = assay: WST-1 cytotoxicity, wildtype U2OS cells; conditions: U2OS cells, 2 hours
human NTCP [4] = biological target: T1, human NTCP; assay: Screening taurocholate uptake assay (96-well, [14C]taurocholate, 10 µM drug)
human NTCP [5] = biological target: T1, human NTCP; assay: Screening fluorescent competitive Myrcludex B-FITC binding assay (96-well, 10 µM drug)
[6] = Prestwick library screen, 10 µM drug, B-score of taurocholate uptake
[7] = combined ranking from functional and binding assay B-scores
[8] = Prestwick library screen, 10 µM drug, B-score of Myrcludex B-FITC binding
[9] = Prestwick library screen, taurocholate uptake, 10 µM drug
[10] = ranking score beside the functional and binding assay B-scores of the screen
[11] = Prestwick library screen, Myrcludex B-FITC binding, 10 µM drug
[12] = combined ranking from functional and binding screening assays
[13] = screen, 10 µM drug, taurocholate uptake
[14] = screen, 10 µM drug, Myrcludex B-FITC binding

CC(C)c1ccc2oc3nc(N)c(C(=O)O)cc3c(=O)c2c1 [Amlexanox]
viability at 2 h, 1 µM (in vitro): 99.6 ± 6.1% | viability at 2 h, 10 µM (in vitro): 102 ± 18.9% | viability at 2 h, 100 µM (in vitro): 92.7 ± 17.8% | viability at 2 h, 1 µM [1]: 88.2 ± 9.6% | viability at 2 h, 10 µM [1]: 94.8 ± 13.8% | viability at 2 h, 100 µM [1]: 77.3 ± 5.6%

Nc1c2c(nc3ccccc13)CCCC2O.O=C(O)/C=C\C(=O)O (stereo not drawn) [Hydroxytacrine Maleate]
cell viability by WST-1 (U2OS-HA-hNTCP cells; 1 µM): 105.6 ± 1.2% | cell viability by WST-1 (U2OS-HA-hNTCP cells; 10 µM): 102 ± 8.3% | cell viability by WST-1 (U2OS-HA-hNTCP cells; 100 µM): 96.7 ± 5.9% | Myrcludex B-FITC fluorescence / binding to U2OS-HA-hNTCP cells (in words) (human NTCP [2]): not | ≥50% loss of Myrcludex B binding to hNTCP (concentration) (human NTCP [2]): Not confirmed | IC50 (human NTCP [3]): 4200 µM | outcome of follow-up screening of hits found in only one of the two screens (human NTCP [3]; follow-up of TC uptake and Myrcludex B binding): false positives | Taurocholate uptake into U2OS-HA-hNTCP cells (in words) (human NTCP [3]): not | cell viability by WST-1 (U2OS cells; 1 µM): 107.6 ± 15.7% | cell viability by WST-1 (U2OS cells; 10 µM): 100.7 ± 7.1% | cell viability by WST-1 (U2OS cells; 100 µM): 95.8 ± 3.9%

Cc1cc(-n2c(=O)[nH]c(=O)n(C)c2=O)ccc1Oc1ccc(SC(F)(F)F)cc1 [Toltrazuril]
Myrcludex B-FITC fluorescence / binding to U2OS-HA-hNTCP cells (in words) (human NTCP [2]): reduced Myrcludex B-FITC fluorescence | ≥50% loss of Myrcludex B binding to hNTCP (concentration) (human NTCP [2]): ≥10 µM | Ranking score (human NTCP [4]; ranking over the functional and the binding screening assay): 35.4965 | B-score functional assay (human NTCP [4]; screening taurocholate uptake, 10 µM drug): -3.14 | viability at 2 h, 1 µM (in vitro): 100 ± 9.9% | viability at 2 h, 10 µM (in vitro): 109 ± 12.9% | viability at 2 h, 100 µM (in vitro): 105 ± 11.4% | IC50 (human NTCP [3]): 84.1 µM | Taurocholate uptake into U2OS-HA-hNTCP cells (in words) (human NTCP [3]): reduced in a dose-dependent fashion | viability at 2 h, 1 µM [1]: 115 ± 6.1% | viability at 2 h, 10 µM [1]: 109 ± 11.8% | viability at 2 h, 100 µM [1]: 101 ± 3.6%

CS(=O)(=O)O.Cc1c(O)cccc1C(=O)N[C@@H](CSc1ccccc1)[C@H](O)CN1C[C@H]2CCCC[C@H]2C[C@H]1C(=O)NC(C)(C)C [Nelfinavir Mesylate Hydrate]
cell viability by WST-1 (U2OS-HA-hNTCP cells; 1 µM): 105.3 ± 7.1% | cell viability by WST-1 (U2OS-HA-hNTCP cells; 10 µM): 99.8 ± 5.2% | cell viability by WST-1 (U2OS-HA-hNTCP cells; 100 µM): 104.8 ± 4.5% | Myrcludex B-FITC fluorescence / binding to U2OS-HA-hNTCP cells (in words) (human NTCP [2]): reduced Myrcludex B-FITC fluorescence | ≥50% loss of Myrcludex B binding to hNTCP (concentration) (human NTCP [2]): ≥100 µM | IC50 (human NTCP [3]): 134 µM | Taurocholate uptake into U2OS-HA-hNTCP cells (in words) (human NTCP [3]): reduced in a dose-dependent fashion | cell viability by WST-1 (U2OS cells; 1 µM): 105.9 ± 8.4% | cell viability by WST-1 (U2OS cells; 10 µM): 102 ± 10.7% | cell viability by WST-1 (U2OS cells; 100 µM): 95.1 ± 5.6%

CC(C(=O)O)c1ccc(N2Cc3ccccc3C2=O)cc1 (stereo not drawn) [Indoprofen]
B-score functional assay (human NTCP [4]; [6]): 0.788 | Ranking score (human NTCP [4]; [7]): 897.998 | B-score binding assay (human NTCP [5]; [8]): 0.209

CCC1(C)CC(=O)NC1=O (stereo not drawn) [Ethosuximide]
B-score functional assay (human NTCP [4]; [6]): 1.817 | Ranking score (human NTCP [4]; [7]): 1070.41 | B-score binding assay (human NTCP [5]; [8]): 0.697

NC(=O)c1cc[n+](CC2=C(C(=O)O)N3C(=O)[C@@H](NC(=O)[C@@H](c4ccccc4)S(=O)(=O)[O-])[C@H]3SC2)cc1 [Cefsulodin sodium salt]
B-score functional assay (human NTCP [4]; [9]): 0.682 | Ranking score (human NTCP [4]; [10]): 669.358 | B-score binding assay (human NTCP [5]; [11]): -0.269

COC(=O)Nc1nc2ccc(C(=O)c3cccs3)cc2[nH]1 [Nocodazole]
Ranking score (human NTCP [4]; [12]): 428.035 | B-score functional assay (human NTCP [4]; [13]): -1.345 | B-score binding assay (human NTCP [5]; [14]): 0.497

CC(N/C(=N\C#N)Nc1ccncc1)C(C)(C)C (stereo not drawn) [Pinacidil]
Ranking score (human NTCP [4]; [12]): 332.839 | B-score functional assay (human NTCP [4]; [13]): -0.832 | B-score binding assay (human NTCP [5]; [14]): -0.477

CC(=O)c1ccc2c(c1)N(CCCN(C)C)c1ccccc1S2.O=C(O)/C=C\C(=O)O [Acetopromazine maleate salt]
Ranking score (human NTCP [4]; [12]): 331.723 | B-score functional assay (human NTCP [4]; [13]): 0.92 | B-score binding assay (human NTCP [5]; [14]): -2.054

CCCc1cc(=O)[nH]c(=S)[nH]1 [Propylthiouracil]
B-score functional assay (human NTCP [4]; [9]): 0.437 | Ranking score (human NTCP [4]; [10]): 823.744 | B-score binding assay (human NTCP [5]; [11]): 0.14

Cc1cc2cc3c(C)cc(=O)oc3c(C)c2o1 [Trioxsalen]
B-score functional assay (human NTCP [4]; [6]): 0.56 | Ranking score (human NTCP [4]; [7]): 1035.49 | B-score binding assay (human NTCP [5]; [8]): 1.537

CCOC(=O)[C@H](CCc1ccccc1)N[C@@H](C)C(=O)N1[C@H](C(=O)O)C[C@@H]2CCC[C@@H]21 [Ramipril]
B-score functional assay (human NTCP [4]; [6]): 0.852 | Ranking score (human NTCP [4]; [7]): 1101.41 | B-score binding assay (human NTCP [5]; [8]): 1.901

COc1cc2nc(N3CCN(C(=O)C4COc5ccccc5O4)CC3)nc(N)c2cc1OC (stereo not drawn) [Doxazosin mesylate]
B-score functional assay (human NTCP [4]): -0.292 | Ranking score (human NTCP [4]): 599.787 | B-score binding assay (human NTCP [5]): 0.211

Nc1nc(O)c2[nH]nnc2n1 [Azaguanine-8]
B-score functional assay (human NTCP [4]; [6]): 3.711 | Ranking score (human NTCP [4]; [7]): 1120.13 | B-score binding assay (human NTCP [5]; [8]): 0.825

CCC[C@H](N[C@@H](C)C(=O)N1[C@H](C(=O)O)C[C@@H]2CCCC[C@@H]21)C(=O)OCC [Perindopril]
Ranking score (human NTCP [4]; [12]): 319.862 | B-score functional assay (human NTCP [4]; [13]): -2.428 | B-score binding assay (human NTCP [5]; [14]): 1.021

Clc1ccc(C(c2ccccc2Cl)C(Cl)Cl)cc1 (stereo not drawn) [Mitotane]
Ranking score (human NTCP [4]; [12]): 352.681 | B-score functional assay (human NTCP [4]; [13]): -2.371 | B-score binding assay (human NTCP [5]; [14]): 2.009

COc1cc(C)c(/C=C/C(C)=C/C=C/C(C)=C/C(=O)O)c(C)c1C [Acitretin]
Ranking score (human NTCP [4]; [12]): 302.82 | B-score functional assay (human NTCP [4]; [13]): 0.046 | B-score binding assay (human NTCP [5]; [14]): -1.766

OCc1cc(C(O)CNCCCCCCOCCCCc2ccccc2)ccc1O (stereo not drawn) [Salmeterol]
Ranking score (human NTCP [4]; [12]): 391.804 | B-score functional assay (human NTCP [4]; [13]): 0.004 | B-score binding assay (human NTCP [5]; [14]): -0.999

CCOc1ccc(NC(C)=O)cc1 [Phenacetin]
B-score functional assay (human NTCP [4]; [6]): 0.074 | Ranking score (human NTCP [4]; [7]): 860.113 | B-score binding assay (human NTCP [5]; [8]): 0.917

CC[C@@H](C(N)=O)N1CCCC1=O [Levetiracetam]
B-score functional assay (human NTCP [4]; [9]): -0.058 | Ranking score (human NTCP [4]; [10]): 657.267 | B-score binding assay (human NTCP [5]; [11]): 0.117

O=C(Nc1ccccc1)OCC(CN1CCCCC1)OC(=O)Nc1ccccc1 (stereo not drawn) [Diperodon hydrochloride]
B-score functional assay (human NTCP [4]; [9]): 0.512 | Ranking score (human NTCP [4]; [10]): 772.884 | B-score binding assay (human NTCP [5]; [11]): 0.002

Cc1onc(-c2ccccc2)c1-c1ccc(S(N)(=O)=O)cc1 [Valdecoxib]
B-score functional assay (human NTCP [4]; [9]): -0.028 | Ranking score (human NTCP [4]; [10]): 650.385 | B-score binding assay (human NTCP [5]; [11]): 0.051
